Assay results reported in patent US20120128777A1, “COMPOSITIONS CONTAINING LIPID MICRO- OR NANOPARTICLES FOR THE ENHANCEMENT OF THE DERMAL ACTION OF SOLID PARTICLES” (PHARMASOL GMBH, priority 2008, published 2012).

Test system: skin
Details: 50 volunteers, undiluted, patch 48 hours, read after 48 hours and after 72 hours

CCCCCCCCCCCCOS(=O)(=O)[O-].[Na+] [SDS, Sodium dodecyl sulphate]
positive reactions: 11 subjects
